# Experimental data: US20240285585A1, “L-ERGOTHIONEINE AND USES THEREOF” (NANJING NUTRABUILDING BIO-TECH CO., LTD., priority 2021, published 2024)
# Tested on: human polymorphonuclear phagocytes
# Assay: in vitro PMN model: ROS formation triggered by fMLP, dihydrorhodamine fluorescence by flow cytometry
# Assay type: cell-based
# Procedure: L-ergothioneine meeting the purity specifications defined herein was tested using in an in vitro PMN model using cells from a healthy blood donor. Minute samples of blood were exposed to L-ergothioneine (0.01-5 g/L) for 24 hours. The cells were then loaded with the dihydrorhodamine dye, which turns fluorescent upon exposure to ROS. Formation of ROS was triggered by addition of the bacterial peptide f-Met-Leu-Phe (fMLP). The samples were treated with a lysing buffer to eliminate most of the red blood cells in the samples, after which the samples were fixed in formalin. The fluorescence intensity of the PMN cells was evaluated by flow cytometry. The low fluorescence intensity of untreated control cells served as a baseline and PMN cells treated with fMLP alone served as a positive control.
# The results are depicted in FIG. 1. […] The percent inhibition is shown as the average±standard deviation of sextuplicate data points for each dose of L-ergothioneine.
structure (smiles),measurement,setting,value
"C[N+](C)(C)[C@@H](Cc1c[nH]c(=S)[nH]1)C(=O)[O-] [L-ergothioneine, (2S)-3-(2-thioxo-2,3-dihydro-1H-imidazol-4-yl)-2-(trimethylammonio)-propanoate]",ROS formation in response to the bacterial peptide fMLP,"PMN cells from a healthy blood donor, L-ergothioneine 0.01-5 g/L for 24 hours, compared to fMLP alone",enhanced ROS formation
same,increase in ROS formation compared to the control cultures,"across the 0.6 g/L dose reported in human tissue, 24 hours, fMLP-triggered",remained statistically significant
